Measured values taken from patent US10287255B2, “Compounds as histone deacetylase 6 inhibitors and pharmaceutical compositions comprising the same” (CHONG KUN DANG PHARMACEUTICAL CORP., priority 2014, dated 2019).

What was measured:
[1] = target: T1, human recombinant HDAC6 (Homo sapiens, UniProt Q9UBN7); test: HDAC6 enzyme activity inhibition assay (in vitro, fluorimetric); format: biochemical; conditions: for HDAC6 selectivity (fold): HDAC6 selectivity over HDAC1; for IC50: human recombinant HDAC6, fluorimetric kit, same protocol as HDAC1
T1 construct: purchased Calbiochem 382180
T1 sequence (Q9UBN7 1-1215): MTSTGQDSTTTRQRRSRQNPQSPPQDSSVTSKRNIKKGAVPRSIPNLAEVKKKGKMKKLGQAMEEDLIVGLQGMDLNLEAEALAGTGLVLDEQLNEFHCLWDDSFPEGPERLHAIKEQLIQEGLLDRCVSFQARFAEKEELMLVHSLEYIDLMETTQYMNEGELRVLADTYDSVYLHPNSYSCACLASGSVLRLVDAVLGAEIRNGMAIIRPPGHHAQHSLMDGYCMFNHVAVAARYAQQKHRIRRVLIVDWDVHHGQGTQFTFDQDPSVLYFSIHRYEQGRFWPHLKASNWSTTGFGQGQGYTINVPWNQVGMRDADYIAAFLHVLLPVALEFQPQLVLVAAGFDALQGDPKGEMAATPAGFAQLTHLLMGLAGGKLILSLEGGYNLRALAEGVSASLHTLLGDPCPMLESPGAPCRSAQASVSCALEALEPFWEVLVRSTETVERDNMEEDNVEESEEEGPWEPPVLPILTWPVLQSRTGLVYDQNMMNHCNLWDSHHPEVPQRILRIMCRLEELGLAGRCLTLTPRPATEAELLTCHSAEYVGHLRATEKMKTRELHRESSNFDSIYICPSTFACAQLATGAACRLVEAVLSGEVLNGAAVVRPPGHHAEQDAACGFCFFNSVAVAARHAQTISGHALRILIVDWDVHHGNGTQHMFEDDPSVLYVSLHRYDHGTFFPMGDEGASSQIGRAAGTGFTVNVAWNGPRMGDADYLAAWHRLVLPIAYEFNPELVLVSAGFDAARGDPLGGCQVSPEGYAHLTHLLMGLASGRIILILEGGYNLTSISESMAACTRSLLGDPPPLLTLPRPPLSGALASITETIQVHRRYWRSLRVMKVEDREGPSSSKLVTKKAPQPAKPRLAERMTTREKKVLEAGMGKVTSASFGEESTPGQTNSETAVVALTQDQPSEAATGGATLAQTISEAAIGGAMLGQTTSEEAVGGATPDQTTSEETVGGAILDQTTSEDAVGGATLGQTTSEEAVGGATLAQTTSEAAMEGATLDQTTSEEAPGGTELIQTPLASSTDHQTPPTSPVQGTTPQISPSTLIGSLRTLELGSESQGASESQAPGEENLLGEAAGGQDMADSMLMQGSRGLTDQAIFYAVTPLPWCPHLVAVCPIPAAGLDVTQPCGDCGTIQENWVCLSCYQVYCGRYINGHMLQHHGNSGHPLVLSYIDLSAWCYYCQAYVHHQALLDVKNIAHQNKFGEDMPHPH
In short: (§1)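 Human recombinant enzyme (0.3 μg for HDAC1) reacted with 10 μM Fluor de Lys-SIRT1 substrate and 5-fold compound dilutions at 30 °C for 60 min, then developer for 30 min. Fluorescence read at Ex 360/Em 460; IC50 calculated. HDAC6 run by the same protocol.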

[2] = target: T2, human recombinant HDAC1 (Homo sapiens, UniProt Q13547); test: HDAC1 enzyme activity inhibition assay (in vitro, fluorimetric); format: biochemical; conditions: human recombinant HDAC1, fluorimetric kit, 30° C. 60 minutes
T2 construct: purchased Enzo Life Science BML-SE456
In short: as §1

T2 sequence (Q13547 whole entry): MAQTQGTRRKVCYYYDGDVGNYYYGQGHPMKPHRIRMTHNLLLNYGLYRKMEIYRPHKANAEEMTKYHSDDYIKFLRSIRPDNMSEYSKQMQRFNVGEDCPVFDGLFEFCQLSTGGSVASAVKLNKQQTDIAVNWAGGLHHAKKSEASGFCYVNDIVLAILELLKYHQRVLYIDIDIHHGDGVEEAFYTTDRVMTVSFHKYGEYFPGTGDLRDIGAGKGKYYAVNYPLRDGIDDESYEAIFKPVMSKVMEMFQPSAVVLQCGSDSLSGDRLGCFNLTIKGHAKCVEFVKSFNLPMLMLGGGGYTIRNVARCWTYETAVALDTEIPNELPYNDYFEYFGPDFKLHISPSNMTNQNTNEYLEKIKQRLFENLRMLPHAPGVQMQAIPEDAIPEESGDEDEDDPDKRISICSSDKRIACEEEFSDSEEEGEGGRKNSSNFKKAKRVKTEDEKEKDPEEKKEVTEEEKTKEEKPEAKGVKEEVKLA

SMILES	HDAC6 selectivity (fold) [1] [fold]	IC50 [1] [nM]	IC50 [2] [nM]
C[C@@H]1CN(CCc2ccccc2)C[C@H](C)N1Cc1ccc(C(=O)NO)cc1 [Compound 183, 4-(((2S,6R)-2,6-dimethyl-4-phenethylpiperazin-1-yl)methyl)-N-hydroxybenzamide]	>20	500	> 10000
CCN(CC)Cc1cccc(C(=O)N2[C@H](C)CN(Cc3ccc(C(=O)NO)cc3)C[C@@H]2C)c1 [Compound 425, 4-(((3R,5S)-4-(3-((diethylamino)methyl)benzoyl)-3,5-dimethylpiperazin-1-yl)methyl)-N-hydroxybenzamide]	17	86	1500
C[C@@H]1CN(Cc2ccc(C(=O)NO)cc2)C[C@H](C)N1C(=O)Oc1ccccc1 [Compound 177, phenyl(2S,6R)-4-(4-(hydroxycarbamoyl)benzyl)-2,6-dimethylpiperazine-1-carboxylate]	186	31	5800
C[C@@H]1CN(CCCCCC(=O)NO)C[C@H](C)N1Cc1ccccc1 [Compound 154, 6-((3R,5S)-4-benzyl-3,5-dimethylpiperazin-1-yl)-N-hydroxyhexanamide]	44	193	8400
C[C@@H]1CN(C(=O)c2ccc(CC(=O)NO)cc2)C[C@H](C)N1Cc1ccccc1 [Compound 823, 2-(4-((3R,5S)-4-benzyl-3,5-dimethylpiperazine-1-carbonyl)phenyl)-N-hydroxyacetamide]	66	40	2700
CCCCN1[C@H](C)CN(Cc2ccc(C(=O)NO)cc2)C[C@@H]1C [Compound 275, 4-(((3R,5S)-4-butyl-3,5-dimethylpiperazin-1-yl)methyl)-N-hydroxybenzamide]	>21	475	> 10000
C[C@@H]1CN(C(=O)Cc2cccc(Cl)c2)C[C@H](C)N1Cc1ccc(C(=O)NO)cc1 [Compound 233, 4-(((2S,6R)-4-(2-(3-chlorophenyl)acetyl)-2,6-dimethylpiperazin-1-yl)methyl)-N-hydroxybenzamide]	11	1480	16900
C[C@@H]1CN(Cc2ccc(C(=O)NO)cc2)C[C@H](C)N1C(=O)c1cccc(-c2ccco2)c1 [Compound 242, 4-(((3R,5S)-4-(3-(furan-2-yl)benzoyl)-3,5-dimethylpiperazin-1-yl)methyl)-N-hydroxybenzamide]	24	98	2400
C[C@@H]1CN(Cc2ccc(C(=O)NO)cc2)C[C@H](C)N1C(=O)c1ccccc1C1=CCOCC1 [Compound 326, 4-(((3R,5S)-4-(2-(3,6-dihydro-2H-pyran-4-yl)benzoyl)-3,5-dimethylpiperazin-1-yl)methyl)-N-hydroxybenzamide]	>172	58	> 10000
CC(C)NC(=O)N1C[C@@H](C)N(Cc2ccc(C(=O)NO)cc2)[C@@H](C)C1 [Compound 103, (3R,5S)-4-(4-(hydroxycarbamoyl)benzyl)-N-isopropyl-3,5-dimethylpiperazine-1-carboxamide]	15	173	2600
C[C@@H]1CN(Cc2ccc(C(=O)NO)cc2)C[C@H](C)N1C(=O)c1ccc(-c2ccco2)cc1 [Compound 340, 4-(((3R,5S)-4-(4-(furan-2-yl)benzoyl)-3,5-dimethylpiperazin-1-yl)methyl)-N-hydroxybenzamide]	3	606	1600
C[C@@H]1CN(C(=O)c2ccc(C(=O)NO)cc2)C[C@H](C)N1Cc1ccccc1 [Compound 814, 4-((3R,5S)-4-benzyl-3,5-dimethylpiperazine-1-carbonyl)-N-hydroxybenzamide]	20	990	20600

The remaining compounds from weak to strong by IC50 [1], led by results:

HDAC6 selectivity (fold) [1] [fold]	IC50 [1] [nM]	IC50 [2] [nM]	SMILES
55	410	22400	C[C@@H]1CN(Cc2ccccc2)C[C@H](C)N1Cc1ccc(C(=O)NO)cn1 [Compound 195, 6-(((2S,6R)-4-benzyl-2,6-dimethylpiperazin-1-yl)methyl)-N-hydroxynicotinamide]
36	337	12300	C[C@@H]1CN(C(=O)c2ccccc2-c2ccco2)C[C@H](C)N1Cc1ccc(C(=O)NO)cc1 [Compound 276, 4-(((2S,6R)-4-(2-(furan-2-yl)benzoyl)-2,6-dimethylpiperazin-1-yl)methyl)-N-hydroxybenzamide]
9	250	2250	C[C@@H]1CN(S(=O)(=O)c2ccc(CC(=O)NO)cc2)C[C@H](C)N1Cc1ccccc1 [Compound 820, 2-(4-(((3R,5S)-4-benzyl-3,5-dimethylpiperazin-1-yl)sulfonyl)phenyl)-N-hydroxyacetamide]
37	179	6600	C[C@@H]1CN(C(=O)c2ccccc2)C[C@H](C)N1Cc1ccc(C(=O)NO)cc1 [Compound 080, 4-(((2S,6R)-4-benzoyl-2,6-dimethylpiperazin-1-yl)methyl)-N-hydroxybenzamide]
12	177	2100	C[C@@H]1CN(C(=O)N2CCc3ccccc32)C[C@H](C)N1Cc1ccc(C(=O)NO)cc1 [Compound 197, N-hydroxy-4-(((2S,6R)-4-(indoline-1-carbonyl)-2,6-dimethylpiperazin-1-yl)methyl)benzamide]
7	114	800	C[C@@H]1CN(Cc2cccc(CN3CCCC3)c2)C[C@H](C)N1Cc1ccc(/C=C/C(=O)NO)cc1 [Compound 475, (E)-3-(4-(((2S,6R)-2,6-dimethyl-4-(3-(pyrrolidin-1-ylmethyl)benzyl)piperazin-1-yl)methyl)phenyl)-N-hydroxyacrylamide]
>102	98	> 10000	C[C@@H]1CN(Cc2ccc(C(=O)NO)cc2)C[C@H](C)N1Cc1cccc(CN2CC[C@@H](F)C2)c1 [Compound 383, 4-(((3R,5S)-4-(3-(((R)-3-fluoropyrrolidin-1-yl)methyl)benzyl)-3,5-dimethylpiperazin-1-yl)methyl)-N-hydroxybenzamide]
55	82	4500	CC(C)N1CCN(Cc2cccc(CN3[C@H](C)CN(Cc4ccc(C(=O)NO)cc4)C[C@@H]3C)c2)CC1 [Compound 430, N-hydroxy-4-(((3R,5S)-4-(3-((4-isopropylpiperazin-1-yl)methyl)benzyl)-3,5-dimethylpiperazin-1-yl)methyl)benzamide]
154	35	5400	CC(CN(C)Cc1ccccc1)NCc1cccc(C(=O)N2[C@H](C)CN(Cc3ccc(C(=O)NO)cc3)C[C@@H]2C)c1 (stereo partly drawn) [Compound 441, 4-(((3R,5S)-4-(3-(((1-(benzyl(methyl)amino)propan-2-yl)amino)methyl)benzoyl)-3,5-dimethylpiperazin-1-yl)methyl)-N-hydroxybenzamide]
332	25	8300	C[C@@H]1CN(Cc2ccc(C(=O)NO)cc2)C[C@H](C)N1Cc1cccc(C2=CCOCC2)c1 [Compound 346, 4-(((3R,5S)-4-(3-(3,6-dihydro-2H-pyran-4-yl)benzyl)-3,5-dimethylpiperazin-1-yl)methyl)-N-hydroxybenzamide]
456	19	8700	C[C@@H]1CN(Cc2ccc(C(=O)NO)cc2)C[C@H](C)N1Cc1cccc(-c2ccco2)c1 [Compound 342, 4-(((3R,5S)-4-(3-(furan-2-yl)benzyl)-3,5-dimethylpiperazin-1-yl)methyl)-N-hydroxybenzamide]
